Experimental data taken from patent publication US20240238212A1, “LIPID COMPOUNDS AND LIPID NANOPARTICLE COMPOSITIONS” (SUZHOU ABOGEN BIOSCIENCES CO., LTD., priority 2022, published 2024).
Where “and” joins values, the source holds several entries; their conditions need not be identical. Equal values may be shown once. Entries after “also recorded” stand apart in the source; their conditions may differ.

Legend:
[1] = test system: luciferase mRNA expression; test: Animal Study 2: bioluminescence of dissected organs; assay type: in vivo, Balb/c mice
Experimental: (§1) Lipid nanoparticles comprising compounds in the following table encapsulating mRNA encoding luciferase were systemically administered to 6-8 week old female Balb/c mice (Charles River Lab, ZheJiang) at 0.25 mg/kg dose by tail vein injection and mice blood were sampled at specific time points (e.g., 6 hours) post administration. Optical imaging was performed using the IVIS Spectrum CT device (PerkinElmer Inc., Paris, France). The luminescence level was evaluated by an ROI applied to the injection site zone (Living Image software, PerkinElmer Inc., Paris, France). In addition to the aforementioned tested groups, lipid nanoparticles comprising dilinoleylmethyl-4-dimethylaminobutyrate (other names: DLin-MC3-DMA or MC3) encapsulating luciferase mRNA were similarly administered at the same dose to age and gender comparative groups of mice as a positive control.
Radiance of heart, liver, spleen, lung, kidney, brain and bone marrow were taken at 6 h after administration. The Dissected organs were placed on a black sheet and imaged with IVIS Spectrum CT (PerkinElmer, Hopkinton, MA). To quantify bioluminescence emission signal, identical regions of interest (ROI) were positioned to encircle each organ region, the imaging signal was quantitated as Total Flux [p/s].

[2] = Apparent pKa of LNP formulations (TNS fluorescence assay); assay type: physicochemical; conditions: LNP formulation, TNS assay (Table 3)
Summary of the method: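 LNPs (cationic lipid/DSPC/cholesterol/DMG-PEG 50/10/38.5/1.5 mol %) diluted to 0.1 mg/mL total lipid in citrate/phosphate/borate/NaCl buffers spanning pH 3–9 with TNS. Fluorescence (ex 325, em 435 nm) read at room temperature; pKa taken as the pH at half-maximal intensity from sigmoidal fit.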

[3] = Encapsulation efficiency of lipid nanoparticles (Quant-it Ribogreen RNA assay); assay type: physicochemical; conditions: LNP comprising the compound, luciferase mRNA
Summary of the method: (§2)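 Ribogreen fluorescence quantifies encapsulated mRNA and backscatter (173°) DLS sizes the particles. These are microfluidically mixed four-component LNPs in DPBS after dialysis.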

[4] = Lipid nanoparticle size and polydispersity by dynamic light scattering; assay type: physicochemical; conditions: LNP comprising the compound, luciferase mRNA
Summary of the method: as §2

[5] = test system: luciferase mRNA expression; test: Animal Study 2: luciferase mRNA LNPs i.v. in mice, optical imaging; assay type: in vivo; conditions: female Balb/c mice, 0.25 mg/kg tail vein injection, e.g. 6 hours; relative to MC3 LNP
Experimental: as §1
Characteristics of tested lipid nanoparticles, including luciferase expression levels over MC3 measured from the tested group are listed in the table below.

[6] = mouse, in vivo
Experimental: LNPs were injected into mice via the tail vein (ICR female, IV, 0.5 mg mRNA/kg), then mice were anesthetized under carbon dioxide at different time (e.g., 6 h, 24 h, and 48 h) after administration and sacrificed via cardiac puncture. Liver tissue were collected immediately, and then washed by ice-cold saline. Liver samples were weighed and homogenized in ice water bath by adding pre-chilled 20% methanol-water (v/v) at 2˜8° C. with the ratio of 1:5 (w/v). The homogenized tissue samples were stored in −90˜−60° C. freezer prior to analysis.
All liver tissue homogenate samples were allowed to thaw at room temperature. An aliquot of 50 μL of sample was added with 50 μL MgCl2 (2M), then added with ACN which contains of Verapamil, 5 ng mL-1 and Glibenclamide, 50 ng mL-1 and Diclofenac, 200 ng mL^−1 and Tolbutamide, 200 ng mL^−1 for protein precipitation, then centrifuged at 13000 rpm for 8 min. Then 100 μL of supernatant was added with 100 μL water, then vortexed well. An aliquot of 5 μL of the mixture was injected into the LC-MS/MS system.

[7] = dissected organ, 6 h after administration, 0.25 mg/kg i.v., ROI 1-3, 0.25 mg/kg

Row | Apparent pKa [2] | Encapsulation efficiency [3] [%] | Polydispersity [4] | Size (nm) [4] [nm] | % Dose Remaining in Liver Tissue, 6 h ([6]; 6 h) [%] | % Dose Remaining in Liver Tissue, 24 h ([6]; 24 h) [%] | % Dose Remaining in Liver Tissue, 48 h ([6]; 48 h) [%] | SMILES | Total Flux [p/s], Brain [1, 7] | Total Flux [p/s], Liver [1, 7] | Total Flux [p/s], Lung [1, 7] | Total Flux [p/s], bone marrow [1, 7] | luciferase expression in organs (in words) ([1]; nanoparticle comprising the compound, organs 6 h after administration) | luciferase expression over MC3 [5]
1 | 6.762 | 88.12 | 0.069 | 113.16 | – | – | – | CCCCCCCCSSCCOC(=O)CCCCCN(CCCCCO)CCCCC(COC(=O)CCCCCCC)COC(=O)CCCCCCC [Compound 76] | 4.60E+06 p/s and 4.15E+06 p/s and 5.13E+06 p/s | 1.40E+09 p/s and 9.82E+08 p/s and 1.38E+09 p/s | 5.18E+06 p/s and 5.48E+06 p/s and 4.33E+06 p/s | 2.09E+06 p/s and 3.07E+06 p/s and 2.94E+06 p/s | significant transduction and luciferase expression were observed in liver and spleen; also recorded: high absolute expression in the heart, spleen, lung, kidney, brain | B (≥1 and <2)
2 | – | – | – | – | 69.39 | 61.63 | 52.47 | CCCCC/C=C\C/C=C\CCCCCCCCC(CCCCCCCC/C=C\C/C=C\CCCCC)OC(=O)CCCN(C)C [MC3, dilinoleylmethyl-4-dimethylaminobutyrate] | – | – | – | – | – | –
